Article PMC9602571, “Discovery of a Dual SENP1 and SENP2 Inhibitor” (International Journal of Molecular Sciences, 2022)
Where two headings read alike, the source gives them in different places.

Experiments:
SENP1 = biological target: T1, SENP1 (Homo sapiens, UniProt Q9P0U3); assay: Fluorogenic SENP1 assay, SUMO1-AMC substrate; type: biochemical; details: for LE (ligand efficiency): calculated: 1.4(-logIC50)/N; for reduced inhibition by a factor: compared to hit compound 11
T1 construct: Human recombinant, His6-SENP1 Catalytic Domain; His6 (N); purchased Boston Biochem (Bio-Techne AG) E-700
T1 sequence (Q9P0U3 450-613 limits assumed): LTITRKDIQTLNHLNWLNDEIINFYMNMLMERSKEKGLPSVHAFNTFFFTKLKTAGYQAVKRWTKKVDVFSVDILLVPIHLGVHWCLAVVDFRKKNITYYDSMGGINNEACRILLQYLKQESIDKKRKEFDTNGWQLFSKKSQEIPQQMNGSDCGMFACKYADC
Method: Human recombinant, His6-SENP1 Catalytic Domain (Boston Biochem Cat# E-700, Bio-Techne AG, Zug, Switzerland) was prepared in reaction buffer (50 mM HEPES, 150 mM NaCl, 0.5 mM EDTA, 1 mM DTT, pH 7.5, 0.01% CHAPS). To this solution, a 20 mM or 50 mM inhibitor stock solution in DMSO was added and the mixture was incubated for 15 min at ambient temperature. […] The slope was calculated using Excel and the curve fits were performed using GraphPad Prism7 with a four-parameter least-squares fit. The final reaction conditions contained 0.02 nM SENP1 and 300 nM SUMO1/2 or 3-AMC).

[1] = screening library samples, SUMO1-AMC, read-out: IC50 SENP1 of hit molecules
[2] = SUMO1-AMC 300 nM, 0.02 nM SENP1, interval in parentheses, read-out: IC50 SENP1

IC50 (SENP1; [2]) [µM]	LE (ligand efficiency) (SENP1)	melting point	SMILES	other results
			Cc1c(C(=O)N2CCC(C)CC2)nnn1-c1cccc2c1CCN(Cc1ccccc1)C2 [Compound 12]	IC50 (SENP1; [1]): 27 µM
			CC1CCn2cc(C(=O)NC3CCn4cc(-c5ccc(F)cc5F)nc4C3)nc2C1 (centres unmarked) [Compound 13]	IC50 (SENP1; [1]): 28 µM
116	0.37	174 °C	O=C1Nc2ccccc2NC12CCCC2 [Compound 15, 3′,4′-Dihydro-1′H-spiro[cyclopentane-1,2′-quinoxalin]-3′-one]	
> 500		178 °C	CC1(C)Nc2ccccc2NC1=O [Compound 16, 3,3-Dimethyl-1,2,3,4-tetrahydroquinoxalin-2-one]	inhibition at 500 µM (SENP1): ~50%
12.3		252 °C (dec.)	CC1(C)C(=O)Nc2ccccc2N1C(=O)Cn1nnc(-c2ccccc2)n1 [Compound 23, 3,3-Dimethyl-4-[2-(5-phenyl-2H-1,2,3,4-tetrazol-2-yl)acetyl]-1,2,3,4-tetrahydroquinoxalin-2-one]	reduced inhibition by a factor (SENP1): 1.5
77.6		231 °C (dec.)	O=C1CN(C(=O)Cn2nnc(-c3ccccc3)n2)c2ccccc2N1 [Compound 24, 4-[2-(5-Phenyl-2H-1,2,3,4-tetrazol-2-yl)acetyl]-1,2,3,4-tetrahydroquinoxalin-2-one]	reduced inhibition by a factor (SENP1): 10
> 500			O=C1CNc2ccccc2N1 [Compound 25, 1,2,3,4-tetrahydroquinoxalin-2-one]	
78	0.38	157 to 162 °C	O=C1Nc2ccccc2OC12CCCC2 [Compound 26, 3,4-Dihydrospiro [1,4-benzoxazine-2,1′-cyclopentan]-3-one]	
261	0.31	230 to 234 °C (dec.)	O=C1Nc2ccccc2NC12CCCCC2 [Compound 27, 3′,4′-Dihydro-1′H-spiro[cyclohexane-1,2′-quinoxalin]-3′-one]	
51	0.33		O=C1Nc2ccccc2NC12CCCCCCC2 [Compound 28, 3′,4′-Dihydro-1′H-spiro[cyclooctane-1,2′-quinoxalin]-3′-one]	
66	0.42		O=C1Nc2ccccc2NC12CCC2 [Compound 29, 3′,4’-Dihydro-1′H-spiro[cyclobutane-1,2′-quinoxalin]-3′-one]	
81	0.41	165 to 170 °C (dec.)	O=C1Nc2ccccc2NC12COC2 [Compound 30, 3′,4′-Dihydro-1′H-spiro[oxetane-3,2′-quinoxalin]-3′-one]	
233	0.32	211 to 226 °C (dec.)	O=C1Nc2ccccc2NC12CCOCC2 [Compound 31, 3′,4′-Dihydro-1′H-spiro[oxane-4,2′-quinoxalin]-3′-one]	
		233 to 238 °C (dec.)	O=C1NC2(CCCC2)Nc2ccccc21 [Compound 32, 3′,4′-Dihydro-1′H-spiro[cyclopentane-1,2′-quinazolin]-4′-one]	
> 500		80 to 82 °C	c1ccc2c(c1)NCC1(CCCC1)N2 [Compound 33, 3′,4′-Dihydro-1′H-spiro[cyclopentane-1,2′-quinoxaline]]	
> 500			O=C1Nc2ncccc2NC12CCCC2 [Compound 34, 3′,4′-Dihydro-1′H-spiro[cyclopentane-1,2′-pyrido [2,3-b]pyrazin]-3′-one]	SENP1 activity in words (SENP1; up to 500 µM): complete loss of activity
37	0.44	126 to 130 °C (dec.)	O=C1Nc2cscc2NC12CCCC2 [Compound 35, 3′,4′-Dihydro-1′H-spiro[cyclopentane-1,2′-thieno [3,4-b]pyrazin]-3′-one]	

IC50 (SENP1; [2]) [µM]	LE (ligand efficiency) (SENP1)	melting point	SMILES	other results
61	0.39		O=C1Nc2cscc2NC12CCCCC2 [Compound 36, 3′,4′-Dihydro-1′H-spiro[cyclohexane-1,2′-thieno [3,4-b]pyrazin]-3′-one]	
110	0.34	176 to 180 °C	COc1cccc2c1NC(=O)C1(CCCC1)N2 [Compound 37, 5′-Methoxy-3′,4′-dihydro-1′H-spiro[cyclopentane-1,2′-quinoxalin]-3′-one]	
61	0.33	147 to 149 °C	COC(=O)c1cccc2c1NC(=O)C1(CCCC1)N2 [Compound 38, Methyl 3′-oxo-3′,4′-dihydro-1′H-spiro[cyclopentane-1,2′-quinoxaline]-5′-carboxylate]	
198	0.32	224 to 227 °C (dec.)	COc1ccc2c(c1)NC1(CCCC1)C(=O)N2 [Compound 39, 7′-Methoxy-3′,4′-dihydro-1′H-spiro[cyclopentane-1,2′-quinoxalin]-3′-one]	
202	0.28	246 to 250 °C (dec.)	COC(=O)c1ccc2c(c1)NC(=O)C1(CCCC1)N2 [Compound 40, Methyl 3′-oxo-3′,4′-dihydro-1′H-spiro[cyclopentane-1,2′-quinoxaline]-6′-carboxylate]	
67	0.34	275 to 278 °C	O=C1Nc2cc([N+](=O)[O-])ccc2NC12CCCC2 [Compound 41, 6′-Nitro-3′,4′-dihydro-1′H-spiro[cyclopentane-1,2′-quinoxalin]-3′-one]	
23		256 °C (dec.)	O=C(Cn1cc(-c2ccccc2)nn1)N1c2ccccc2NC(=O)C12CCCC2 [Compound 44, 1′-[2-(4-Phenyl-1H-1,2,3-triazol-1-yl)acetyl]-3′,4′-dihydro-1′H-spiro[cyclopentane-1,2′-quinoxalin]-3′-one]	
19		205 °C (dec.)	O=C(Cn1cc(C2CCCCC2)nn1)N1c2ccccc2NC(=O)C12CCCC2 [Compound 45, 1′-[2-(4-Cyclohexyl-1H-1,2,3-triazol-1-yl)acetyl]-3′,4′-dihydro-1′H-spiro[cyclopentane-1,2′-quinoxalin]-3′-one]	
38		203 °C (dec.)	O=C(Cn1cc(Cc2ccccc2)nn1)N1c2ccccc2NC(=O)C12CCCC2 [Compound 46, 1′-[2-(4-Benzyl-1H-1,2,3-triazol-1-yl)acetyl]-3′,4′-dihydro-1′H-spiro[cyclopentane-1,2′-quinoxalin]-3′-one]	
29		272 °C (dec.)	O=C(O)c1cccc(-c2cn(CC(=O)N3c4ccccc4NC(=O)C34CCCC4)nn2)c1 [Compound 47, 3-[1-(2-Oxo-2-{3′-oxo-3′,4′-dihydro-1′H-spiro[cyclopentane-1,2′-quinoxalin]-1′-yl}ethyl)-1H-1,2,3-triazol-4-yl]benzoic acid]	
7.5		263 °C (dec.)	COC(=O)c1ccc(-c2cn(CC(=O)N3c4ccccc4NC(=O)C34CCCC4)nn2)cc1 [Compound 48, Methyl 4-[1-(2-oxo-2-{3′-oxo-3′,4′-dihydro-1′H-spiro[cyclopentane-1,2′-quinoxalin]-1′-yl}ethyl)-1H-1,2,3-triazol-4-yl]benzoate]	
13		249 °C (dec.)	COc1ccc(-c2cn(CC(=O)N3c4ccccc4NC(=O)C34CCCC4)nn2)cc1 [Compound 49, 1′-{2-[4-(4-Methoxyphenyl)-1H-1,2,3-triazol-1-yl]acetyl}-3′,4′-dihydro-1′H-spiro[cyclopentane-1,2′-quinoxalin]-3′-one]	
> 200		218 °C (dec.)	O=C(Cn1cc(-c2ccccn2)nn1)N1c2ccccc2NC(=O)C12CCCC2 [Compound 50, 1′-{2-[4-(Pyridin-2-yl)-1H-1,2,3-triazol-1-yl]acetyl}-3′,4′-dihydro-1′H-spiro[cyclopentane-1,2′-quinoxalin]-3′-one]	SENP1 inhibition in words (SENP1; at 200 µM): only slight inhibition
> 200			O=C(Cn1cc(C2CC2)nn1)N1c2ccccc2NC(=O)C12CCCC2 [Compound 51, 1′-[2-(4-Cyclopropyl-1H-1,2,3-triazol-1-yl)acetyl]-3′,4′-dihydro-1′H-spiro[cyclopentane-1,2′-quinoxalin]-3′-one]	
> 100			COCCc1cn(CC(=O)N2c3ccccc3NC(=O)C23CCCC3)nn1 [Compound 53, 1′-{2-[4-(2-Methoxyethyl)-1H-1,2,3-triazol-1-yl]acetyl}-3′,4′-dihydro-1′H-spiro[cyclopentane-1,2′-quinoxalin]-3′-one]	
153			CC1(C)C(=O)Nc2ccccc2N1C(=O)CN1CCc2ccccc21 [Compound S4]	
> 200			COc1ccc(N(C)CC(=O)N2c3ccccc3NC(=O)C2(C)C)cc1 [Compound S7]	

SMILES	IC50 (SENP1; [2]) [µM]	LE (ligand efficiency) (SENP1)	melting point	other results
O=C(CN1CCN(c2ccccc2)CC1)N1c2ccccc2NC(=O)C12CCCC2 [Compound S1]	152			
CC1(C)C(=O)Nc2ccccc2N1C(=O)CN1CCN(c2ccccc2)CC1 [Compound S2]	101			
CC1(C)C(=O)Nc2ccccc2N1C(=O)COc1ccccc1 [Compound S3]	> 200			
CN(CC(=O)N1c2ccccc2NC(=O)C1(C)C)Cc1ccccc1 [Compound S5]	> 200			
CN(CC(=O)N1c2ccccc2NC(=O)C1(C)C)c1ccccc1 [Compound S6]	> 200			
